Laboratory results as given in paper PMC7758046, “Novel piperazine–chalcone hybrids and related pyrazoline analogues targeting VEGFR-2 kinase; design, synthesis, molecular docking studies, and anticancer evaluation” (Journal of Enzyme Inhibition and Medicinal Chemistry, 2020).

Assays:
Test in all cases: NCI-60 single-dose anticancer screen
Assay type in all cases: cell-based, human
786-0 (Renal cancer) = conditions: 10 µM single dose
Protocol: (§1) Six compounds were selected by the NCI, according to NCI’s DTP selection guidelines, for evaluation of their anticancer activity at a single-dose of 10 µM against 60 human tumours cell lines.
(§2) In vitro cytotoxicity was performed in NCI according to reported method.

A498 (Renal cancer) = conditions: 10 µM single dose
Protocol: as §1, §2

BT-549 (Breast cancer) = conditions: 10 µM single dose
Protocol: as §1, §2

CAKI-1 (Renal cancer) = conditions: 10 µM single dose
Protocol: as §1, §2

CCRF-CEM (Leukaemia) = conditions: 10 µM single dose; for inhibition at 10 µM: Homo sapiens, read-out: cell growth inhibition
Protocol: as §1, §2

COLO 205 (Colon cancer) = conditions: 10 µM single dose
Protocol: as §1, §2

DU-145 (Prostate cancer) = conditions: 10 µM single dose
Protocol: as §1, §2

[1] = system: EKVX (Non-small cell lung cancer); conditions: 10 µM single dose
Protocol: as §1, §2

HCC-2998 (Colon cancer) = conditions: 10 µM single dose
Protocol: as §1, §2

HCT-116 (Colon cancer) = conditions: for cell growth promotion: 10 µM single dose; for inhibition at 10 µM: Homo sapiens, read-out: cell growth inhibition
Protocol: as §1, §2

HCT-15 (Colon cancer) = conditions: 10 µM single dose
Protocol: as §1, §2

[2] = system: HOP-62 (Non-small cell lung cancer); conditions: 10 µM single dose
Protocol: as §1, §2

[3] = system: HOP-92 (Non-small cell lung cancer); conditions: 10 µM single dose; for inhibition at 10 µM: Homo sapiens, read-out: cell growth inhibition
Protocol: as §1, §2

HT29 (Colon cancer) = conditions: for cell growth promotion: 10 µM single dose; for inhibition at 10 µM: Homo sapiens, HT-29, 10 µM single dose, read-out: cell growth inhibition
Protocol: as §1, §2

IGROV1 (Ovarian cancer) = conditions: 10 µM single dose
Protocol: as §1, §2

LOX IMVI (Melanoma) = conditions: 10 µM single dose
Protocol: as §1, §2

MALME-3M (Melanoma) = conditions: 10 µM single dose
Protocol: as §1, §2

MDA-MB-435 (Melanoma) = conditions: 10 µM single dose
Protocol: as §1, §2

[4] = system: MDA-MB-468 (Breast cancer); conditions: 10 µM single dose
Protocol: as §1, §2

MOLT-4 (Leukaemia) = conditions: 10 µM single dose
Protocol: as §1, §2

[5] = system: NCI-H226 (Non-small cell lung cancer); conditions: 10 µM single dose
Protocol: as §1, §2

[6] = system: NCI-H460 (Non-small cell lung cancer); conditions: 10 µM single dose
Protocol: as §1, §2

[7] = system: NCI-H522 (Non-small cell lung cancer); conditions: 10 µM single dose
Protocol: as §1, §2

[8] = system: NCI/ADR-RES (Ovarian cancer); conditions: 10 µM single dose
Protocol: as §1, §2

OVCAR-3 (Ovarian cancer) = conditions: 10 µM single dose
Protocol: as §1, §2

OVCAR-4 (Ovarian cancer) = conditions: 10 µM single dose
Protocol: as §1, §2

OVCAR-5 (Ovarian cancer) = conditions: 10 µM single dose
Protocol: as §1, §2

OVCAR-8 (Ovarian cancer) = conditions: 10 µM single dose
Protocol: as §1, §2

PC-3 (Prostate cancer) = conditions: 10 µM single dose
Protocol: as §1, §2

RPMI-8226 (Leukaemia) = conditions: 10 µM single dose
Protocol: as §1, §2

RXF 393 (Renal cancer) = conditions: 10 µM single dose
Protocol: as §1, §2

SF-268 (CNS cancer) = conditions: 10 µM single dose
Protocol: as §1, §2

SF-295 (CNS cancer) = conditions: 10 µM single dose
Protocol: as §1, §2

SK-MEL-2 (Melanoma) = conditions: 10 µM single dose
Protocol: as §1, §2

SK-MEL-28 (Melanoma) = conditions: 10 µM single dose
Protocol: as §1, §2

SK-OV-3 (Ovarian cancer) = conditions: 10 µM single dose
Protocol: as §1, §2

SN12C (Renal cancer) = conditions: 10 µM single dose
Protocol: as §1, §2

SNB-19 (CNS cancer) = conditions: 10 µM single dose
Protocol: as §1, §2

SNB-75 (CNS cancer) = conditions: 10 µM single dose
Protocol: as §1, §2

SR (Leukaemia) = conditions: 10 µM single dose; for inhibition at 10 µM: Homo sapiens, read-out: cell growth inhibition
Protocol: as §1, §2

SW-620 (Colon cancer) = conditions: 10 µM single dose
Protocol: as §1, §2

T-47D (Breast cancer) = conditions: 10 µM single dose
Protocol: as §1, §2

TK-10 (Renal cancer) = conditions: 10 µM single dose
Protocol: as §1, §2

U251 (CNS cancer) = conditions: 10 µM single dose
Protocol: as §1, §2

UACC-257 (Melanoma) = conditions: 10 µM single dose
Protocol: as §1, §2

UACC-62 (Melanoma) = conditions: 10 µM single dose
Protocol: as §1, §2

UO-31 (Renal cancer) = conditions: 10 µM single dose
Protocol: as §1, §2

## O=C(C=Cc1ccncc1F)c1ccc(N2CCNCC2)cc1 [Vf, 3-(3-Fluoropyridin-4-yl)-1-(4-(piperazin-1-yl)phenyl)prop-2-en-1-one]
786-0 (Renal cancer)
  cell growth promotion: 103.38%
A498 (Renal cancer)
  cell growth promotion: 97.22%
BT-549 (Breast cancer)
  cell growth promotion: 90.81%
CAKI-1 (Renal cancer)
  cell growth promotion: 86.18%
CCRF-CEM (Leukaemia)
  cell growth promotion: 78.16%
  inhibition at 10 µM: 21.8%
COLO 205 (Colon cancer)
  cell growth promotion: 111.89%
DU-145 (Prostate cancer)
  cell growth promotion: 108.14%
[1]
  cell growth promotion: 99.11%
HCC-2998 (Colon cancer)
  cell growth promotion: 100.88%
HCT-116 (Colon cancer)
  cell growth promotion: 73.87%
  inhibition at 10 µM: 26.1%
HCT-15 (Colon cancer)
  cell growth promotion: 111.39%
[2]
  cell growth promotion: 102.01%
[3]
  cell growth promotion: 82.34%
  inhibition at 10 µM: 17.7%
HT29 (Colon cancer)
  cell growth promotion: 86.42%
  inhibition at 10 µM: 13.8%
IGROV1 (Ovarian cancer)
  cell growth promotion: 97.17%
LOX IMVI (Melanoma)
  cell growth promotion: 103.22%
MALME-3M (Melanoma)
  cell growth promotion: 99.98%
MDA-MB-435 (Melanoma)
  cell growth promotion: 102.37%
[4]
  cell growth promotion: 100.32%
MOLT-4 (Leukaemia)
  cell growth promotion: 91.63%
[5]
  cell growth promotion: 99.71%
[6]
  cell growth promotion: 106.01%
[7]
  cell growth promotion: 78.82%
[8]
  cell growth promotion: 107.53%
OVCAR-3 (Ovarian cancer)
  cell growth promotion: 106.22%
OVCAR-4 (Ovarian cancer)
  cell growth promotion: 110.55%
OVCAR-5 (Ovarian cancer)
  cell growth promotion: 111.84%
OVCAR-8 (Ovarian cancer)
  cell growth promotion: 95.35%
PC-3 (Prostate cancer)
  cell growth promotion: 73.56%
RPMI-8226 (Leukaemia)
  cell growth promotion: 97.33%
RXF 393 (Renal cancer)
  cell growth promotion: 97.78%
SF-268 (CNS cancer)
  cell growth promotion: 100.92%
SF-295 (CNS cancer)
  cell growth promotion: 101.95%
SK-MEL-2 (Melanoma)
  cell growth promotion: 91.63%
SK-MEL-28 (Melanoma)
  cell growth promotion: 115.56%
SK-OV-3 (Ovarian cancer)
  cell growth promotion: 96.68%
SN12C (Renal cancer)
  cell growth promotion: 99.00%
SNB-19 (CNS cancer)
  cell growth promotion: 96.07%
SNB-75 (CNS cancer)
  cell growth promotion: 89.08%
SR (Leukaemia)
  cell growth promotion: 92.99%
  inhibition at 10 µM: 7.01%
SW-620 (Colon cancer)
  cell growth promotion: 105.59%
T-47D (Breast cancer)
  cell growth promotion: 118.12%
TK-10 (Renal cancer)
  cell growth promotion: 95.83%
U251 (CNS cancer)
  cell growth promotion: 95.03%
UACC-257 (Melanoma)
  cell growth promotion: 70.86%
UACC-62 (Melanoma)
  cell growth promotion: 92.01%
UO-31 (Renal cancer)
  cell growth promotion: 89.78%

## COc1cc(C=CC(=O)c2ccc(N3CCNCC3)cc2)ccc1F [Ve, 3-(4-Fluoro-3-methoxyphenyl)-1-(4-(piperazin-1-yl)phenyl) prop-2-en-1-one]
786-0 (Renal cancer)
  cell growth promotion: 87.22%
A498 (Renal cancer)
  cell growth promotion: 100.79%
BT-549 (Breast cancer)
  cell growth promotion: 66.42%
CAKI-1 (Renal cancer)
  cell growth promotion: 79.37%
CCRF-CEM (Leukaemia)
  cell growth promotion: 22.15%
  inhibition at 10 µM: 77.8%
COLO 205 (Colon cancer)
  cell growth promotion: 83.00%
DU-145 (Prostate cancer)
  cell growth promotion: 105.61%
[1]
  cell growth promotion: 97.12%
HCC-2998 (Colon cancer)
  cell growth promotion: 100.21%
HCT-116 (Colon cancer)
  cell growth promotion: 27.43%
  inhibition at 10 µM: 72.6%
HCT-15 (Colon cancer)
  cell growth promotion: 43.16%
[2]
  cell growth promotion: 101.42%
[3]
  cell growth promotion: 55.00%
  inhibition at 10 µM: 45%
HT29 (Colon cancer)
  cell growth promotion: 49.97%
IGROV1 (Ovarian cancer)
  cell growth promotion: 59.94%
LOX IMVI (Melanoma)
  cell growth promotion: 49.01%
MALME-3M (Melanoma)
  cell growth promotion: 112.40%
MDA-MB-435 (Melanoma)
  cell growth promotion: 80.14%
[4]
  cell growth promotion: 46.48%
MOLT-4 (Leukaemia)
  cell growth promotion: 80.75%
[5]
  cell growth promotion: 86.54%
[6]
  cell growth promotion: 97.07%
[7]
  cell growth promotion: 61.19%
[8]
  cell growth promotion: 79.31%
OVCAR-3 (Ovarian cancer)
  cell growth promotion: 70.18%
OVCAR-4 (Ovarian cancer)
  cell growth promotion: 68.87%
OVCAR-5 (Ovarian cancer)
  cell growth promotion: 121.73%
OVCAR-8 (Ovarian cancer)
  cell growth promotion: 57.23%
PC-3 (Prostate cancer)
  cell growth promotion: 51.40%
RPMI-8226 (Leukaemia)
  cell growth promotion: 49.59%
RXF 393 (Renal cancer)
  cell growth promotion: 101.92%
SF-268 (CNS cancer)
  cell growth promotion: 94.03%
SF-295 (CNS cancer)
  cell growth promotion: 95.92%
SK-MEL-2 (Melanoma)
  cell growth promotion: 85.44%
SK-MEL-28 (Melanoma)
  cell growth promotion: 106.02%
SK-OV-3 (Ovarian cancer)
  cell growth promotion: 87.98%
SN12C (Renal cancer)
  cell growth promotion: 57.67%
SNB-19 (CNS cancer)
  cell growth promotion: 59.87%
SNB-75 (CNS cancer)
  cell growth promotion: 89.05%
SR (Leukaemia)
  cell growth promotion: 46.22%
  inhibition at 10 µM: 53.8%
SW-620 (Colon cancer)
  cell growth promotion: 50.69%
T-47D (Breast cancer)
  cell growth promotion: 74.40%
TK-10 (Renal cancer)
  cell growth promotion: 101.24%
U251 (CNS cancer)
  cell growth promotion: 67.21%
UACC-257 (Melanoma)
  cell growth promotion: 76.08%
UACC-62 (Melanoma)
  cell growth promotion: 80.13%
UO-31 (Renal cancer)
  cell growth promotion: 58.35%

## Fc1cnccc1C1CC(c2ccc(N3CCNCC3)cc2)=NN1 (stereo not drawn) [VIc, 1-(4-(5-(3-Fluoropyridin-4-yl)-4,5-dihydro-1H-pyrazol-3-yl)phenyl) piperazine]
786-0 (Renal cancer)
  cell growth promotion: 111.09%
A498 (Renal cancer)
  cell growth promotion: 97.17%
BT-549 (Breast cancer)
  cell growth promotion: 85.33%
CAKI-1 (Renal cancer)
  cell growth promotion: 80.62%
CCRF-CEM (Leukaemia)
  cell growth promotion: 80.81%
COLO 205 (Colon cancer)
  cell growth promotion: 95.69%
DU-145 (Prostate cancer)
  cell growth promotion: 107.16%
[1]
  cell growth promotion: 91.04%
HCC-2998 (Colon cancer)
  cell growth promotion: 101.72%
HCT-116 (Colon cancer)
  cell growth promotion: 73.82%
  inhibition at 10 µM: 26.2%
HCT-15 (Colon cancer)
  cell growth promotion: 97.59%
[2]
  cell growth promotion: 83.16%
[3]
  cell growth promotion: 72.42%
  inhibition at 10 µM: 27.6%
HT29 (Colon cancer)
  cell growth promotion: 60.16%
  inhibition at 10 µM: 39.8%
IGROV1 (Ovarian cancer)
  cell growth promotion: 67.96%
LOX IMVI (Melanoma)
  cell growth promotion: 94.31%
MALME-3M (Melanoma)
  cell growth promotion: 93.43%
MDA-MB-435 (Melanoma)
  cell growth promotion: 105.18%
[4]
  cell growth promotion: 114.26%
MOLT-4 (Leukaemia)
  cell growth promotion: 74.15%
[5]
  cell growth promotion: 82.88%
[6]
  cell growth promotion: 94.92%
[7]
  cell growth promotion: 81.93%
[8]
  cell growth promotion: 106.03%
OVCAR-3 (Ovarian cancer)
  cell growth promotion: 98.79%
OVCAR-4 (Ovarian cancer)
  cell growth promotion: 108.25%
OVCAR-5 (Ovarian cancer)
  cell growth promotion: 111.45%
OVCAR-8 (Ovarian cancer)
  cell growth promotion: 95.06%
PC-3 (Prostate cancer)
  cell growth promotion: 70.34%
RPMI-8226 (Leukaemia)
  cell growth promotion: 92.51%
RXF 393 (Renal cancer)
  cell growth promotion: 104.89%
SF-268 (CNS cancer)
  cell growth promotion: 107.32%
SF-295 (CNS cancer)
  cell growth promotion: 98.00%
SK-MEL-2 (Melanoma)
  cell growth promotion: 92.72%
SK-MEL-28 (Melanoma)
  cell growth promotion: 115.80%
SK-OV-3 (Ovarian cancer)
  cell growth promotion: 85.00%
SN12C (Renal cancer)
  cell growth promotion: 89.56%
SNB-19 (CNS cancer)
  cell growth promotion: 97.45%
SNB-75 (CNS cancer)
  cell growth promotion: 101.50%
SR (Leukaemia)
  cell growth promotion: 90.38%
SW-620 (Colon cancer)
  cell growth promotion: 93.46%
T-47D (Breast cancer)
  cell growth promotion: 82.20%
TK-10 (Renal cancer)
  cell growth promotion: 122.80%
U251 (CNS cancer)
  cell growth promotion: 95.06%
UACC-257 (Melanoma)
  cell growth promotion: 83.07%
UACC-62 (Melanoma)
  cell growth promotion: 81.93%
UO-31 (Renal cancer)
  cell growth promotion: 77.18%
